pKi: −log10 of the molar value.
What was measured:
[1] = system: A. Baumannii ATCC 17961; experiment: Agar diffusion assay (modified Kirby-Bauer); assay type: cell-based; conditions: 2 mM solution, 50 μL in 9.0 mm well, P unclear, V very unclear zone, * slightly misshapen zone
Experimental: (§1) Antibacterial activity of the compounds was determined by a modified Kirby-Bauer^27-28 agar-diffusion assay. Overnight cultures of test organisms were grown in LB broth for 18-24h and standard suspensions of […] were prepared in saline solution (0.9% NaCl) according to a 0.5 BaSO4 McFarland Standard. This standardized suspension (0.1 mL) was added to 34 mL of sterile, Mueller Hinton No. 2 agar tempered to 47-50° C. After gentle mixing, the inoculated agar media was poured into a sterile plastic petri dish (145 mm×20 mm) and allowed to solidify near a flame with the lid cracked for 30 min. Wells of 9.0 mm diameter were cut from the petri dish agar and filled with exactly 50 μL of the test sample solution. For studies using mixtures of compounds, both test compounds were diluted to equal concentrations and 50 μL of the mixed compound solution was added to the cut well. The petri dish was incubated at 37° C. for 18-24 h and the inhibition zone diameters were measured (mm) with an electronic caliper after 24-48 h.
(§2) All compound-containing solutions were prepared by first making a 20 mM solution of the compound in DMSO and then diluting that solution 10-fold with MeOH to give the final 2 mM solution used in the assay.
(§3) Plates were incubated after inoculation at 37° C. for 20 hours. Plates were photographed after 1 day. M. vaccae required a longer incubation time, 48 hours, and was photographed after 3 days.

[2] = system: B. Dolosa AU 0018; experiment: Agar diffusion assay (modified Kirby-Bauer); assay type: cell-based; conditions: 2 mM solution, 50 μL in 9.0 mm well, P unclear, V very unclear zone, * slightly misshapen zone
Experimental: as §1, §2, §3

[3] = system: B. Subtilis ATCC 6633; experiment: Agar diffusion assay (modified Kirby-Bauer); assay type: cell-based; conditions: 2 mM solution, 50 μL in 9.0 mm well, P unclear, V very unclear zone, * slightly misshapen zone
Experimental: as §1, §2, §3

[4] = system: E. Coli DC0; experiment: Agar diffusion assay (modified Kirby-Bauer); assay type: cell-based; conditions: 2 mM solution, 50 μL in 9.0 mm well, P unclear, V very unclear zone, * slightly misshapen zone
Experimental: as §1, §2, §3

[5] = system: E. Coli DC2; experiment: Agar diffusion assay (modified Kirby-Bauer); assay type: cell-based; conditions: E. Coli DC2, 2 mM solution, 50 μL in 9.0 mm well, P unclear, V very unclear zone, * slightly misshapen zone
Experimental: as §1, §2, §3

[6] = system: M. Luteus ATCC 10240; experiment: Agar diffusion assay (modified Kirby-Bauer); assay type: cell-based; conditions: M. Luteus ATCC 10240, 2 mM solution, 50 μL in 9.0 mm well, P unclear, V very unclear zone, * slightly misshapen zone
Experimental: as §1, §2, §3

[7] = system: P. Aeruginosa K799/61; experiment: Agar diffusion assay (modified Kirby-Bauer); assay type: cell-based; conditions: P. Aeruginosa K799/61 (permeability mutant); 2 mM solution, 50 μL in 9.0 mm well; P unclear, V very unclear zone, * slightly misshapen zone
Experimental: as §1, §2, §3

[8] = system: P. Aeruginosa K799/wt; experiment: Agar diffusion assay (modified Kirby-Bauer); assay type: cell-based; conditions: P. Aeruginosa K799/wt (wild type); 2 mM solution, 50 μL in 9.0 mm well; P unclear, V very unclear zone, * slightly misshapen zone
Experimental: as §1, §2, §3

[9] = molecular target: AmpC; experiment: β-lactamase inhibition, Ki by enzyme kinetics (nitrocefin); assay type: biochemical; conditions: class C
Experimental: (§4) The enzymes KPC-2, Oxa-48, AmpC and NDM-1 were purchased from Emerald Bioscience and the enzymes CTX-14 and SHV-12 were expressed and purified from E. coli at Rempex pharmaceutical (San Diego, Calif.).
(§5) To the first row of a 2-mL deep 96-well block was added 1 mL of 50 mM sodium phosphate buffer at pH 7 with 0.1 mg/mL BSA (bovine serum albumin). To the first row was added an appropriate amount of a 10 mg/mL solution of the compound to be tested to make a 640 μM (4×) solution. Each of the other wells in the 96-well block were charged with 750 μL of the aforementioned buffer. The rows were then repeatedly diluted 1:3 so that the final concentrations of the individual 96-well plates would range in concentrations from 160 μM to 3 nM (8 dilutions). The master block was then used to add 50 pt to each corresponding well in the 96-well flat-bottom plate. An additional 50 of buffer was added to each well. Once the plates were prepared, 50 μL of the enzyme to be tested against were added in buffer to each well [KPC-2 (0.147 mg/mL), CTX-M-14 (0.102 mg/mL), […] (0.331 mg/mL), AmpC (0.699 mg/mL), SHV-12 (0.111 mg/mL), NDM-1 (0.110 mg/mL)]. The plates were incubated at rt for 10 min before 50 μL. of an appropriate indicator were added to each well and the optical density at 495 nm was measured over time. For each enzyme, other than NDM-1, nitrocefin was used. Nitrocefin (10 μM for SHV-12, 50 μM for the other enzymes), was appropriate because when cleaved by a β-lactamase, the color changes from yellow to red. For NDM-1, imipenem (10 μM) was the indicator of choice. Rather than observe the growing presence of optical density at 495 nm, as with nitrocefin, the disappearance of imipenem was monitored. The inhibition curves were monitored and used to perform enzyme kinetics according to Waley to determine the Ki (μM) of each compound against the β-lactamases screened.

[10] = molecular target: T1, CTX-M-14 (Escherichia coli, UniProt Q9L5C7); experiment: as above; assay type: biochemical; conditions: CTX-M-14, class A
T1 construct: host or cells: E. coli
Experimental: as §4, §5

[11] = molecular target: T2, KPC-2 (Klebsiella pneumoniae, UniProt Q9F663); experiment: as above; assay type: biochemical; conditions: KPC-2, class A
T2 construct: purchased Emerald Bioscience
Experimental: as §4, §5

[12] = molecular target: T3, Oxa-48 (Klebsiella pneumoniae, UniProt Q6XEC0); experiment: as above; assay type: biochemical; conditions: Oxa-48, class D
T3 construct: purchased Emerald Bioscience
Experimental: as §4, §5

[13] = molecular target: T4, SHV-12 (Klebsiella pneumoniae, UniProt P0AD64, E235K/G234S/L31Q); experiment: as above; assay type: biochemical; conditions: SHV-12, class A
T4 construct: host or cells: E. coli
Experimental: as §4, §5

[14] = molecular target: PAM 2035; experiment: β-lactamase inhibition, Ki by enzyme kinetics; assay type: biochemical; conditions: PAM 2035, class C
[15] = molecular target: T5, NDM-1 (Klebsiella pneumoniae, UniProt C7C422); experiment: β-lactamase inhibition, Ki by enzyme kinetics (imipenem); assay type: biochemical; conditions: NDM-1, class B
T5 construct: purchased Emerald Bioscience
Experimental: as §4, §5

[16] = molecular target: VIM-1 (Pseudomonas aeruginosa, UniProt A0A0F7KYQ8); experiment: β-lactamase inhibition, Ki by enzyme kinetics; assay type: biochemical; conditions: VIM-1, class B
[17] = system: selected β-lactamase enzymes from classes A, B, C and D; experiment: β-lactamase inhibitory activity, results in words; assay type: biochemical; conditions: C and D (Ambler classification)
Experimental: as §5

[18] = system: M. Vaccae IMET 10670; experiment: Agar diffusion assay (modified Kirby-Bauer); assay type: cell-based; conditions: 2 mM solution, 50 μL in 9.0 mm well, 48 hours incubation, P unclear, V very unclear zone, * slightly misshapen zone
Experimental: as §1, §2, §3

[19] = system: S. Aureus SG511; experiment: Agar diffusion assay (modified Kirby-Bauer); assay type: cell-based; conditions: 2 mM solution, 50 μL in 9.0 mm well, P unclear, V very unclear zone, * slightly misshapen zone
Experimental: as §1, §2, §3

[20] = system: panel of Gram-positive and Gram-negative bacteria; experiment: Kirby-Bauer agar diffusion assays, results in words; assay type: cell-based
Experimental: as §1, §2, §3

[21] = system: panel of Gram-positive and Gram-negative bacteria; experiment: MIC determination; assay type: cell-based; conditions: same panel of Gram-positive and Gram-negative bacteria, all values

T4 sequence (P0AD64 22-286 L31Q/G234S/E235K): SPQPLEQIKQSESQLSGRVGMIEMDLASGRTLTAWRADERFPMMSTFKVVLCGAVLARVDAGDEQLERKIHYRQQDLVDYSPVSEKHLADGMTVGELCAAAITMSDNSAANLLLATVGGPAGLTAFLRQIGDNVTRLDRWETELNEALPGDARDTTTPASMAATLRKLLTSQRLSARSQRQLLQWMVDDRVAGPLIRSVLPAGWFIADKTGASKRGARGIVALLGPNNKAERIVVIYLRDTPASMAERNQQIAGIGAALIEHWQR
T1 sequence (Q9L5C7 entry or part of it): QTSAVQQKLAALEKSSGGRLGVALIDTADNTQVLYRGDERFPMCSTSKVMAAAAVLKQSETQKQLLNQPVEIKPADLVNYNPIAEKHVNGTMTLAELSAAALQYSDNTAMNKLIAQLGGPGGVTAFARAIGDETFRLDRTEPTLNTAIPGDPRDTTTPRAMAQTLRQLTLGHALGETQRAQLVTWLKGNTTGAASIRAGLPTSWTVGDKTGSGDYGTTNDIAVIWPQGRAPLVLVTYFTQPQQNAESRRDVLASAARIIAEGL
T2 sequence (Q9F663 25-293 limits assumed): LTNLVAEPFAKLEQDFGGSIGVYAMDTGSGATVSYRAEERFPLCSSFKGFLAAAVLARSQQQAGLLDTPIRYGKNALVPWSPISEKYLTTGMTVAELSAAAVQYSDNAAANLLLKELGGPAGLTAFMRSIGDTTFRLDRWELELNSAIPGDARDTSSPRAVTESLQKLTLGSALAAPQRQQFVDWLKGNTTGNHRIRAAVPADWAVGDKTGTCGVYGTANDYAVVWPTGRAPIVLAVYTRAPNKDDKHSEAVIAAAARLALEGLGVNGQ
T3 sequence (Q6XEC0 23-265 limits assumed): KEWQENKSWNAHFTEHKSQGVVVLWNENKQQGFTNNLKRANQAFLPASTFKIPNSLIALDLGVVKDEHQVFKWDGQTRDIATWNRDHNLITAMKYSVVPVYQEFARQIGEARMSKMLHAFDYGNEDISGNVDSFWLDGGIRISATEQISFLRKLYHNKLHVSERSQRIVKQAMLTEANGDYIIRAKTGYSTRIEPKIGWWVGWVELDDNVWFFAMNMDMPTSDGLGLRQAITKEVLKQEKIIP
T5 sequence (C7C422 29-270 limits assumed): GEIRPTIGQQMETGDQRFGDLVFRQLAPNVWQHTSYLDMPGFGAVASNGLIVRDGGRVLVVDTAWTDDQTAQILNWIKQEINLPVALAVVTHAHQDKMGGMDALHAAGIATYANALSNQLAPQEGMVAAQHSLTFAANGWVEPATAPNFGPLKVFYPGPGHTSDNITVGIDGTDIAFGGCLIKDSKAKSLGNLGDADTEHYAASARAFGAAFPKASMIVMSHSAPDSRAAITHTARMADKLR

| Compound | Zone of Growth Inhibition [1] | Zone of Growth Inhibition [2] | Zone of Growth Inhibition [3] | Zone of Growth Inhibition [4] | Zone of Growth Inhibition [5] | Zone of Growth Inhibition [7] | Zone of Growth Inhibition [8] | pKi [9] | pKi [10] | pKi [11] | pKi [12] | pKi [13] | pKi [14] | pKi [15] | pKi [16] | β-lactamase inhibitory activity, selectivity [17] | Zone of Growth Inhibition [19] | also measured |
| --- | --- | --- | --- | --- | --- | --- | --- | --- | --- | --- | --- | --- | --- | --- | --- | --- | --- | --- |
| O=C1CC(CBr)N1OS(=O)(=O)/C=C/c1ccccc1 (stereo not drawn) [Compound 61a] | 0 mm | 0 mm | 15* mm | 0 mm | 0 mm | 0 mm | 0 mm | < 3.80 | 6.83 | 4.71 | 5.83 | 6.11 | < 3.80 | < 3.80 | < 3.80 | inhibited enzymes from both classes A and D |  | Zone of Growth Inhibition [6]: 17 mm |
| CC(C)(C)OC(=O)NCCSC[C@@H]1NC(=O)[C@H]1NC(=O)OCC1c2ccccc2-c2ccccc21 [Compound 41] | 13P |  | 13P | 15V |  | 16P | 15P |  |  |  |  |  |  |  |  |  |  | zone of inhibition at 2000 µM ([2]; Burkholderia dolosa, read-out: Zone of Growth Inhibition): 0 mm; zone of inhibition at 2000 µM ([5]; Escherichia coli, read-out: Zone of Growth Inhibition): 0 mm; zone of inhibition at 2000 µM ([6]; Micrococcus luteus, ATCC10240, read-out: Zone of Growth Inhibition): 0 mm; Zone of Growth Inhibition [18]: 17V; zone of inhibition at 2000 µM ([19]; Staphylococcus aureus, read-out: Zone of Growth Inhibition): 0 mm; antibacterial activity ([20]; E. coli strains DC0 and DC2): only active against the permeability mutant DC0; antibacterial activity ([20]; P. aeruginosa, both the wild type (K799/0 wt) and the permeability mutant (K799/61)): showed activity; antibacterial activity ([20]; against B. subtilis and M. vaccae, A. baumannii, P. aeruginosa and E. coli): moderate activity; MIC [21]: > 50 µM |
| O=C1CC(CBr)N1OS(=O)(=O)c1cccc2ccccc12 (stereo not drawn) [Compound 61b] | 0 mm | 0 mm | 12 mm | 0 mm | 0 mm | 0 mm | 0 mm | < 3.80 | < 3.80 | < 3.80 | 5.33 | 6.70 | < 3.80 | < 3.80 |  | inhibited enzymes from both classes A and D | 14P |  |
| O=C1CC(CBr)N1OS(=O)(=O)c1ccc2ccccc2c1 (stereo not drawn) [Compound 61c] | 0 mm | 0 mm |  | 0 mm | 0 mm | 0 mm | 0 mm | < 3.80 | < 3.80 | < 3.80 | < 3.80 | 6.72 | < 3.80 | < 3.80 | < 3.80 | active only against the class A enzyme SHV-12 | 15 mm |  |

From patent publication US9862680B2, “Peripherally substituted monocyclic beta-lactams” (University of Notre Dame du Lac, priority 2016, dated 2018)
